Data on 2 compounds can be found in ChEMBL document CHEMBL5042504 (J Med Chem, 2022).

Data set [1] deals with T1, Histone deacetylase 1 (Homo sapiens, UniProt Q13547). Description: Inhibition of human recombinant HDAC1 using Boc-Lys(acetyl)-AMC substrate incubated for 2 hrs by fluorescence based assay.
For the next data set, the target named is Histone deacetylase 2 (Homo sapiens, UniProt Q92769). Description: Inhibition of human recombinant HDAC2 using Boc-Lys(acetyl)-AMC substrate incubated for 2 hrs by fluorescence based assay.
A short description of data set [2]: Cmax in CD-1 mouse at 5 mg/kg, iv measured upto 24 hrs. Also on record: route intravenous, dose 5 mg/kg, time <=24. Format: ADME, organism-based. The following applies: in vivo.
A short description of data set [3]: Cmax in CD-1 mouse at 20 mg/kg, po measured upto 24 hrs. Type of data set: ADME, organism-based. Also on record: route oral, dose 20 mg/kg, time <=24. The following applies: CD-1, mouse, in vivo, read-out: Cmax.
Data set [4] can be described thus: Half life in CD-1 mouse at 20 mg/kg, po measured upto 24 hrs. Type of data set: ADME, organism-based. The following applies: in vivo.
For data set [5], the system named is MV4-11. Description: Induction of apoptosis in human wt-p53 MV4-11 cells assessed as apoptotic cells at 200 nM measured after 24 hrs by FITC Annexin V/propidium iodide staining based flow cytometry (reference value: 9.14%). Type of data set: functional. On the technique in general: In flow cytometry, cells or beads pass a laser one at a time.
Data set [6] relates to HL-60. Description: Induction of apoptosis in human p53 null HL-60 cells assessed as […] at 200 nM measured after 24 hrs by FITC Annexin V/propidium iodide staining based flow cytometry (reference value: 20.55%). The conditions noted are these: read-out: Activity. Format: functional.
The subject of data set [7] is HL-60. The data set is described as follows: Induction of apoptosis in human p53 null HL-60 cells assessed as […] at 500 nM measured after 24 hrs by FITC Annexin V/propidium iodide staining based flow cytometry (reference value: 20.55%). Type of data set: functional. The following applies: read-out: Activity.
Data set [8] in a line: Antitumor activity against human MV4-11 cells xenografted in BALB/c mouse assessed as tumor growth inhibition at 2 to 4 mg/kg, po administered for 24 days. Format: functional. The following applies: dose 2-4 mg/kg, time 24 day. In general terms: In xenograft studies the graft and the host belong to different species.
Data set [9] deals with MV4-11. The data set is described as follows: Antitumor activity against human MV4-11 cells xenografted in BALB/c mouse assessed as inhibition of tumor growth at single administration for 4 mg/kg, po incubated for 0.5 to 8 hrs. The conditions noted are these: time 0.5-8 hrs. Format: functional, organism-based.
Data set [10] in a line: Drug uptake in BALB/c mouse xenografted with human AML MV4-11 cells assessed as tumor tissue at 4mg/kg, po measured after 0.5 to 6 hrs by LC-MS/MS. Format: ADME, organism-based. The following applies: in vivo, time 0.5-6 hrs.
Data set [11] in a line: Drug uptake in BALB/c mouse xenografted with human AML MV4-11 cells assessed as tumor tissue at 4 mg/kg ip measured after 0.5 to 6 hrs by LC-MS/MS. Format: ADME, organism-based. The following applies: in vivo, time 0.5-6 hrs.
Data set [12] addresses T1, Histone deacetylase 1. The data set is described as follows: Mixed type inhibition of human HDAC1 (unknown origin) by Lineweaver-Burk plot analysis.
In data set [13] the target is T2, Histone deacetylase 3 (Homo sapiens, UniProt O15379). Description: Non competitive type inhibition of human HDAC3 (unknown origin) by Lineweaver-Burk plot analysis.
For data set [14], the target named is T1, Histone deacetylase 1. The data set is described as follows: Inhibition of HDAC1 (unknown origin)preincubated upto 2 hrs by fluorescence based assay. The following applies: time hrs <=2.
Data set [15] deals with T2, Histone deacetylase 3. The data set is described as follows: Inhibition of HDAC3(unknown origin) preincubated upto 2 hrs by fluorescence based assay. The following applies: time hrs <=2.
In data set [16] the test system is MV4-11. The data set is described as follows: Antitumor activity against human MV4-11 cells xenografted in balb/c mouse assessed as accumulation of AcHH4 protein level at 4 mg/kg, po measured after 2 hrs. Type of data set: functional, organism-based.
In data set [17] the test system is MV4-11. Description: Antitumor activity against human MV4-11 cells xenografted in balb/c mouse assessed as accumulation of AcHH4 protein level at 4 mg/kg, po measured after 8 hrs. Type of data set: functional, organism-based.
Data set [18] relates to MV4-11. Description: Antitumor activity against human MV4-11 cells xenografted in balb/c mouse assessed as accumulation of AcHH3 protein level at 4 mg/kg, po measured after 8 hrs. Format: functional, organism-based.
The nature of data set [19]: Drug distribution in BALB/c mouse spleen measured at 4 mg/kg, po or ip after 0.5 hrs. Type of data set: ADME, organism-based. The following applies: in vivo.
Data set [20] is described as follows: Drug distribution in BALB/c mouse kidney measured at 4 mg/kg, po or ip after 0.5 hrs after 0.5 hrs. The conditions noted are these: in vivo. Type of data set: ADME, organism-based.
Data set [21] is described as follows: Drug distribution in BALB/c mouse gut measured at 4 mg/kg, po or ip after 0.5 hrs after 0.5 hrs. Type of data set: ADME, organism-based. The following applies: in vivo.
The nature of data set [22]: Drug distribution in BALB/c mouse brain measured at 4 mg/kg, po or ip after 0.5 hrs after 0.5 hrs. Type of data set: ADME, organism-based. The following applies: in vivo.
Data set [23] can be described thus: Drug distribution in BALB/c mouse lung measured at 4 mg/kg, po or ip after 0.5 hrs after 0.5 hrs. The conditions noted are these: in vivo. Format: ADME, organism-based.
Data set [24] is described as follows: Drug distribution in BALB/c mouse kidney measured at 4 mg/kg, po or ip after 2 to 8 hrs after 0.5 hrs. Format: ADME, organism-based. The following applies: in vivo, time 2-8 hrs.
A short description of data set [25]: Drug distribution in BALB/c mouse heart measured at 4 mg/kg, po or ip after 2 to 8 hrs after 0.5 hrs. Type of data set: ADME, organism-based. The conditions noted are these: in vivo, time 2-8 hrs.
A short description of data set [26]: Drug metabolism in BALB/c mouse liver assessed as metabolized compound. Format: ADME, tissue-based.
The nature of data set [27]: Toxicity in BALB/c mouse assessed as induction of pathological changes in liver by H and E staining based analysis. Format: tissue-based. The conditions noted are these: in vivo.
Data set [28] is described as follows: Toxicity in BALB/c mouse assessed as induction of pathological changes in lung by H and E staining based analysis. Type of data set: tissue-based. The conditions noted are these: in vivo.
Data set [29] in a line: Antitumor activity against human MV4-11 cells xenografted in BALB/c mouse assessed as growth inhibition at 2 to 4 mg/kg, po ad. Format: functional. The following applies: dose 2-4 mg/kg, time 24 day.
Data set [30] can be described thus: Drug distribution in tumor of BALB/c mouse xenografted with human MV4-11 cells assessed as measured after 2 hrs. Type of data set: ADME. The conditions noted are these: read-out: Ct.
Data set [31] is described as follows: Drug distribution in tumor of BALB/c mouse xenografted with human MV4-11 cells assessed as measured after 8 hrs. Type of data set: ADME. The conditions noted are these: read-out: Drug uptake.
Data set [32] deals with MV4-11. Description: cells. The conditions noted are these: Homo sapiens, MV4-11, 48 h.
Description: Antiproliferative activity against human MV4-11 AML cells assessed as cell viability measured after 48 hrs by multiplate reader method

Molecules are shown by their SMILES. Calls of active or inactive are those of the source. No cut-off for these calls is given here.

T1 sequence (Q13547 whole entry): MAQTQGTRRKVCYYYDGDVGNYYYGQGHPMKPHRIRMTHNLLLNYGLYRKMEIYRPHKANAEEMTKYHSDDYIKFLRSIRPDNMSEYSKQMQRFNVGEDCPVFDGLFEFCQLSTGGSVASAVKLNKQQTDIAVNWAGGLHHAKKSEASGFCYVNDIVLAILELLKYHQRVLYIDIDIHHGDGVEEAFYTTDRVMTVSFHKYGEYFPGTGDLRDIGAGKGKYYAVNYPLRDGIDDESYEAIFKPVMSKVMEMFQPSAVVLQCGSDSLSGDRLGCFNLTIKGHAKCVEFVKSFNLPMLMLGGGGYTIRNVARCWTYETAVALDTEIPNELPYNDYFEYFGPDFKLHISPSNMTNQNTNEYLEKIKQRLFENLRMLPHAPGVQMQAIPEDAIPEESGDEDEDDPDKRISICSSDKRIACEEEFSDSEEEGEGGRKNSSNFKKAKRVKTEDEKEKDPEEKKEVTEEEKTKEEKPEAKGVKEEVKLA
T2 sequence (O15379 whole entry): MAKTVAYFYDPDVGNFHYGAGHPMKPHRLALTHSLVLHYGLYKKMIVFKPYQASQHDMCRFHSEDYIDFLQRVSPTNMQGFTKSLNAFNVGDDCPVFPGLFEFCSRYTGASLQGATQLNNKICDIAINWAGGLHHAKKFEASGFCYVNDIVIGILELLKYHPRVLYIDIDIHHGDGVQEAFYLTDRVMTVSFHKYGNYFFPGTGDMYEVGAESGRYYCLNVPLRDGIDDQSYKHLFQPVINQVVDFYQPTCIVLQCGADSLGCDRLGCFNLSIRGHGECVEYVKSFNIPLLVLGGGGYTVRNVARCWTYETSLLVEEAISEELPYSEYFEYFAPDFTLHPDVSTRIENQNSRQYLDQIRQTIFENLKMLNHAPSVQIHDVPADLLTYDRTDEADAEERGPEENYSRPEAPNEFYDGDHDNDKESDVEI
Chain of Histone deacetylase 2 (Q92769 whole entry): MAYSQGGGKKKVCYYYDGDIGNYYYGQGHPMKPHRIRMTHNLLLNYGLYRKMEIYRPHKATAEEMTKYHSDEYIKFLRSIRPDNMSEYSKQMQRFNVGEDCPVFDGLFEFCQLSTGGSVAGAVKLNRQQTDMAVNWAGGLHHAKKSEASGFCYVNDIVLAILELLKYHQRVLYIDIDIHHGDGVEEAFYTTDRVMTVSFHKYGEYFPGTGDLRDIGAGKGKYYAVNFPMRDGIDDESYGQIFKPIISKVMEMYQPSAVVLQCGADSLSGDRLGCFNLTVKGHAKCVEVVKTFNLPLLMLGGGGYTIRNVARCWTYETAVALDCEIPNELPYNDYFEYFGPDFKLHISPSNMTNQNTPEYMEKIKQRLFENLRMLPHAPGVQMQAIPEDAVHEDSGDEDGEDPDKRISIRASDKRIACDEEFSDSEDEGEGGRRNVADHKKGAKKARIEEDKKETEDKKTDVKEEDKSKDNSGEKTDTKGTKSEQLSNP

In general, IC50 refers to the point on the concentration scale where inhibition reaches its midpoint. By Cmax is commonly meant the highest concentration seen after dosing. A word on the half-life: it is how long it takes for the measured level to halve. Low values mean rapid decline, high ones slow decline. In general, TGI refers to how far tumour growth fell short of that in controls. The term T/C denotes the ratio of treated to control. `CCCNNC(=O)c1ccc(CNC(=O)c2cc3ccccc3[nH]2)cc1`: the IC50 came to 3.01 nM at Histone deacetylase 1 [1], 18.5 nM at Histone deacetylase 2, 1.5 nM against Histone deacetylase 1 [12] and 0.56 nM on Histone deacetylase 3 [13]. Also, the figures for the Cmax in [2] and in data set [3] were 21600 ng/mL and 38800 ng/mL, respectively. In addition, the half-life in data set [4] was 2.58 h. For the same compound, the results for the Activity (in the data set with MV4-11 [5]; in [27]; in [28]) were 71.2%, “Non-Toxic” and “Non-Toxic”, respectively. Further, in the data set on HL-60 [6], the viability at 0.2 µM came out at 32.6%. Also, the viability at 0.5 µM in the data set with HL-60 [7] was 44.8%. Besides, in data set [8], the inhibition of tumour growth (TGI) was determined as 78.9%. Moreover, the outcome in the data set with MV4-11 [9], at Histone deacetylase 1 [14], on Histone deacetylase 3 [15], in the data set on MV4-11 [16], in the data set on MV4-11 [17] and in the data set with MV4-11 [18] was Active. Further, the Drug uptake result in [10], in data set [11], in [19], in data set [20], in [21] and in [22] was “Active” throughout. Besides, the Drug uptake result in data set [23], in [24] and in data set [25] was “Active” throughout. Also, the Drug metabolism result in [26] is reported as “Metabolite_Detected”. Also, in [29], the T/C turned out to be 22.2%. The concentration at 2 h in data set [30] was 882 ng/g. Also, in [31], the concentration at 8 h stood at 151 ng/g.

`CCCNNC(=O)c1ccc(CNC(=O)/C=C/c2ccccc2)cc1` had an IC50 with MV4-11 [32] of 36.4 nM.
